Results: ChEMBL document CHEMBL2010666, “A resveratrol analog, phoyunbene B, induces G2/M cell cycle arrest and apoptosis in HepG2 liver cancer cells” (Bioorg Med Chem Lett, 2012)
Activity calls are given as the source filed them. The rule behind the calls is not given here.

Experiments:
[1] = Cytotoxicity against human QSG7701 cells after 24 hrs by MTT assay; type: cell-based; conditions: QSG7701, 24 h
HepG2 [2] = assay: Cytotoxicity against human HepG2 cells after 24 hrs by MTT assay; type: functional, cell-based; conditions: HepG2, 24 h
[3] = Cytotoxicity against human FHCC-98 cells after 24 hrs by MTT assay; type: functional, cell-based; conditions: FHCC-98, 24 h
HepG2 [4] = assay: Induction of apoptosis in human HepG2 cells assessed as increase in caspase 3 activation using Ac-DEVD-pNA as substrate at 10 uM after 12 hrs by colorimetry relative to control; type: functional
HepG2 [5] = assay: Upregulation of Cdc-2 in human HepG2 cells at 30 to 50 uM after 24 hrs by Western blotting analysis; type: functional, cell-based
HepG2 [6] = assay: Upregulation of cyclin B1 in human HepG2 cells at 30 to 50 uM after 24 hrs by Western blotting analysis; type: functional, cell-based
HepG2 [7] = assay: Induction of apoptosis in human HepG2 cells assessed as cell shrinkage at 30 uM after 24 hrs by phase-contrast microscopy; type: functional, cell-based
HepG2 [8] = assay: Cell cycle arrest in human HepG2 cells assessed as accumulation at subG0 phase at 30 uM after 32 hrs by FACS analysis relative to control; type: functional
HepG2 [9] = assay: Induction of apoptosis in human HepG2 cells assessed as Bax activation at 30 uM after 24 hrs by immunostaining; type: functional, cell-based
HepG2 [10] = assay: Cell cycle arrest in human HepG2 cells assessed as accumulation at S phase at 30 uM after 12 hrs by FACS analysis (reference value: 29.5 %); type: functional
HepG2 [11] = assay: Cell cycle arrest in human HepG2 cells assessed as accumulation at G2/M phase at 30 uM after 24 hrs by FACS analysis (reference value: 16.8 %); type: functional
HepG2 [12] = assay: Cell cycle arrest in human HepG2 cells assessed as accumulation at G2/M phase at 30 uM after 12 hrs by FACS analysis (reference value: 16.8 %); type: functional
HepG2 [13] = assay: Induction of apoptosis in human HepG2 cells assessed as chromatin condensation at 30 uM after 24 hrs by immunostaining; type: functional, cell-based
FHCC-98 [14] = assay: Inhibition of human FHCC-98 cell adhesion to matrigel-coated plates at 100 uM after 30 to 60 mins by crystal violet staining-based spectrophotometry; type: functional
HepG2 [15] = assay: Induction of apoptosis in human HepG2 cells assessed as down-regulation of Bcl-2 at 30 uM by Western blotting analysis; type: functional, cell-based; conditions: TDE = time-dependent effect
[16] = Induction of apoptosis in human QSG7701 cells assessed as Bax activation at 30 uM after 24 hrs by immunostaining; type: cell-based; conditions: qsg7701, 24 h
HepG2 [17] = assay: Induction of apoptosis in human HepG2 cells assessed as up-regulation of Bax at 30 uM by Western blotting analysis; type: functional, cell-based; conditions: TDE = time-dependent effect
HepG2 [18] = assay: Upregulation of Cdc-2 in human HepG2 cells at 30 uM after 12 to 32 hrs by Western blotting analysis; type: functional, cell-based
HepG2 [19] = assay: Induction of apoptosis in human HepG2 cells assessed as increase in caspase 3 activation using Ac-DEVD-pNA as substrate at 30 uM after 12 hrs by colorimetry relative to control; type: functional
HepG2 [20] = assay: Induction of apoptosis in human HepG2 cells assessed as nuclear fragmentation at 30 uM after 24 hrs by immunostaining; type: functional, cell-based
HepG2 [21] = assay: Cell cycle arrest in human HepG2 cells assessed as accumulation at subG0 phase at 30 uM after 24 hrs by FACS analysis relative to control; type: functional
HepG2 [22] = assay: Upregulation of cyclin B1 in human HepG2 cells at 30 uM after 12 to 32 hrs by Western blotting analysis; type: functional, cell-based
[23] = Induction of apoptosis in human QSG7701 cells assessed as increase in caspase 3 activation using Ac-DEVD-pNA as substrate at 30 uM after 12 hrs by colorimetry relative to control; type: cell-based; conditions: qsg7701, 12 h
HepG2 [24] = assay: Induction of apoptosis in human HepG2 cells assessed as PARP cleavage at 30 uM by Western blotting analysis; type: functional, cell-based; conditions: TDE = time-dependent effect
HepG2 [25] = assay: Cell cycle arrest in human HepG2 cells assessed as accumulation at G0/G1 phase at 30 uM after 12 hrs by FACS analysis (reference value: 53.7 %); type: functional
HepG2 [26] = assay: Cell cycle arrest in human HepG2 cells assessed as accumulation at S phase at 30 uM after 24 hrs by FACS analysis (reference value: 29.5 %); type: functional
HepG2 [27] = assay: Cell cycle arrest in human HepG2 cells assessed as accumulation at G2/M phase at 30 uM; type: functional, cell-based; conditions: TDE = time-dependent effect
HepG2 [28] = assay: Cell cycle arrest in human HepG2 cells assessed as accumulation at subG0 phase at 30 uM after 12 hrs by FACS analysis relative to control; type: functional
HepG2 [29] = assay: Cell cycle arrest in human HepG2 cells assessed as accumulation at G2/M phase at 30 uM after 32 hrs by FACS analysis (reference value: 16.8 %); type: functional
FHCC-98 [30] = assay: Inhibition of human FHCC-98 cell adhesion to matrigel-coated plates at 50 uM after 30 to 60 mins by crystal violet staining-based spectrophotometry; type: functional
HepG2 [31] = assay: Cell cycle arrest in human HepG2 cells assessed as accumulation at G0/G1 phase at 30 uM after 24 hrs by FACS analysis (reference value: 53.7 %); type: functional
HepG2 [32] = assay: Cell cycle arrest in human HepG2 cells assessed as accumulation at S phase at 30 uM after 32 hrs by FACS analysis (reference value: 29.5 %); type: functional
HepG2 [33] = assay: Cell cycle arrest in human HepG2 cells assessed as accumulation at G0/G1 phase at 30 uM after 32 hrs by FACS analysis (reference value: 53.7 %); type: functional
HepG2 [34] = assay: Cell cycle arrest in human HepG2 cells assessed as accumulation at subG0 phase at 50 uM after 24 hrs by FACS analysis relative to control; type: functional
HepG2 [35] = assay: Cell cycle arrest in human HepG2 cells assessed as accumulation at G2/M phase at 50 uM after 24 hrs by FACS analysis (reference value: 16.8 %); type: functional
HepG2 [36] = assay: Cell cycle arrest in human HepG2 cells assessed as accumulation at S phase at 50 uM after 24 hrs by FACS analysis (reference value: 29.5 %); type: functional
HepG2 [37] = assay: Cell cycle arrest in human HepG2 cells assessed as accumulation at G0/G1 phase at 50 uM after 24 hrs by FACS analysis (reference value: 53.7 %); type: functional

Question: What does the source list for `Oc1cccc(/C=C/c2cc(O)cc(O)c2)c1`?
Answer: IC50 [1]: > 100 µM; IC50 (HepG2 [2]): 95.8 µM; IC50 [3]: > 100 µM

Question: For `CC[C@@]1(O)C(=O)OCc2c1cc1n(c2=O)Cc2cc3ccccc3nc2-1` [CAMPTOTHECIN], which IC50 [1] is on record?
Answer: 18.3 µM

Question: What about the IC50 (HepG2 [2]) of the same molecule?
Answer: 6.4 µM

Question: What about the IC50 [3] of the same molecule?
Answer: 15.2 µM

Question: What about the “fold change (FC)” value (HepG2 [4]) of the same molecule?
Answer: 4

Question: With `COc1cc(O)cc(/C=C/c2ccc(OC)c(O)c2OC)c1` [PHOYUNBENE A] as the molecule, how does the IC50 [1] read?
Answer: > 100 µM

Question: What about the IC50 (HepG2 [2]) of the same molecule?
Answer: > 100 µM

Question: What about the IC50 [3] of the same molecule?
Answer: > 100 µM

Question: With `COc1cc(O)cc(/C=C/c2ccc(O)c(OC)c2OC)c1` [PHOYUNBENE B] as the molecule, how does the Activity (HepG2 [5]) read?
Answer: inactive

Question: And the Activity (HepG2 [6])?
Answer: Active

Question: What about the Activity (HepG2 [7]) of the same molecule?
Answer: Active

Question: And the Activity (HepG2 [8])?
Answer: 12.3%

Question: And the Activity (HepG2 [9])?
Answer: Active

Question: What about the Activity (HepG2 [10]) of the same molecule?
Answer: 20.5%

Question: What about the Activity (HepG2 [11]) of the same molecule?
Answer: 62.8%

Question: What about the Activity (HepG2 [12]) of the same molecule?
Answer: 41.3%

Question: What about the Activity (HepG2 [13]) of the same molecule?
Answer: Active

Question: What about the inhibition (FHCC-98 [14]) of the same molecule?
Answer: Active

Question: What about the Activity (HepG2 [15]) of the same molecule?
Answer: tde

Question: What about the Activity [16] of the same molecule?
Answer: Non-toxic

Question: And the Activity (HepG2 [17])?
Answer: tde

Question: What about the Activity (HepG2 [18]) of the same molecule?
Answer: inactive

Question: What about the “fold change (FC)” value (HepG2 [19]) of the same molecule?
Answer: 5

Question: And the IC50 [1]?
Answer: > 100 µM

Question: And the Activity (HepG2 [20])?
Answer: Active

Question: And the Activity (HepG2 [21])?
Answer: 6.5%

Question: What about the Activity (HepG2 [22]) of the same molecule?
Answer: Active

Question: And the Activity [23]?
Answer: Non-toxic

Question: What about the Activity (HepG2 [24]) of the same molecule?
Answer: tde

Question: What about the Activity (HepG2 [25]) of the same molecule?
Answer: 38.2%

Question: What about the IC50 (HepG2 [2]) of the same molecule?
Answer: 37.1 µM

Question: What about the Activity (HepG2 [26]) of the same molecule?
Answer: 13%

Question: What about the Activity (HepG2 [27]) of the same molecule?
Answer: tde

Question: What about the Activity (HepG2 [28]) of the same molecule?
Answer: 0%

Question: And the IC50 [3]?
Answer: 45.8 µM

Question: And the Activity (HepG2 [29])?
Answer: 75.2%

Question: What about the inhibition (FHCC-98 [30]) of the same molecule?
Answer: Active

Question: And the Activity (HepG2 [31])?
Answer: 17.7%

Question: And the Activity (HepG2 [32])?
Answer: 7.9%

Question: And the Activity (HepG2 [33])?
Answer: 4.6%

Question: With `COc1cc(O)cc(/C=C/c2cccc(O)c2OC)c1` [PHOYUNBENE C] as the molecule, how does the IC50 [1] read?
Answer: > 100 µM

Question: And the IC50 (HepG2 [2])?
Answer: 90.8 µM

Question: What about the IC50 [3] of the same molecule?
Answer: > 100 µM

Question: What does the source list for `COc1cc(O)cc(/C=C/c2cccc(OC)c2OC)c1` [PHOYUNBENE D]?
Answer: IC50 [1]: > 100 µM; IC50 (HepG2 [2]): > 100 µM; IC50 [3]: 80.5 µM

Question: Which results are given for `COc1c(O)cccc1/C=C/c1cc(O)cc(O)c1` [PHOYUNBENE E]?
Answer: IC50 [1]: > 100 µM; IC50 (HepG2 [2]): > 100 µM; IC50 [3]: > 100 µM

Question: For `COc1cc(O)cc(/C=C/c2cccc(O)c2O)c1` [PHOYUNBENE F], which IC50 [1] is on record?
Answer: > 100 µM

Question: What about the IC50 (HepG2 [2]) of the same molecule?
Answer: > 100 µM

Question: What about the IC50 [3] of the same molecule?
Answer: > 100 µM

Question: Which results are given for `Oc1ccc(/C=C/c2cc(O)cc(O)c2)cc1` [RESVERATROL]?
Answer: Activity (HepG2 [34]): 0%; inhibition (FHCC-98 [14]): Active; IC50 [1]: > 100 µM; IC50 (HepG2 [2]): 80.3 µM; Activity (HepG2 [35]): 11.7%; Activity (HepG2 [36]): 56.3%; IC50 [3]: 95.2 µM; Activity (HepG2 [37]): 31.9%; inhibition (FHCC-98 [30]): Active
